This is an account of results in patent publication US20250361230A1, “LATS Inhibitors and Uses Thereof” (The USA, as Represented by the Secretary, Dept. of Heath …, priority 2022, published 2025).

What all share (assay type): biochemical
One experiment has as its target T1, LATS1 (Homo sapiens, UniProt O95835).
T1 sequence (O95835 1-1130): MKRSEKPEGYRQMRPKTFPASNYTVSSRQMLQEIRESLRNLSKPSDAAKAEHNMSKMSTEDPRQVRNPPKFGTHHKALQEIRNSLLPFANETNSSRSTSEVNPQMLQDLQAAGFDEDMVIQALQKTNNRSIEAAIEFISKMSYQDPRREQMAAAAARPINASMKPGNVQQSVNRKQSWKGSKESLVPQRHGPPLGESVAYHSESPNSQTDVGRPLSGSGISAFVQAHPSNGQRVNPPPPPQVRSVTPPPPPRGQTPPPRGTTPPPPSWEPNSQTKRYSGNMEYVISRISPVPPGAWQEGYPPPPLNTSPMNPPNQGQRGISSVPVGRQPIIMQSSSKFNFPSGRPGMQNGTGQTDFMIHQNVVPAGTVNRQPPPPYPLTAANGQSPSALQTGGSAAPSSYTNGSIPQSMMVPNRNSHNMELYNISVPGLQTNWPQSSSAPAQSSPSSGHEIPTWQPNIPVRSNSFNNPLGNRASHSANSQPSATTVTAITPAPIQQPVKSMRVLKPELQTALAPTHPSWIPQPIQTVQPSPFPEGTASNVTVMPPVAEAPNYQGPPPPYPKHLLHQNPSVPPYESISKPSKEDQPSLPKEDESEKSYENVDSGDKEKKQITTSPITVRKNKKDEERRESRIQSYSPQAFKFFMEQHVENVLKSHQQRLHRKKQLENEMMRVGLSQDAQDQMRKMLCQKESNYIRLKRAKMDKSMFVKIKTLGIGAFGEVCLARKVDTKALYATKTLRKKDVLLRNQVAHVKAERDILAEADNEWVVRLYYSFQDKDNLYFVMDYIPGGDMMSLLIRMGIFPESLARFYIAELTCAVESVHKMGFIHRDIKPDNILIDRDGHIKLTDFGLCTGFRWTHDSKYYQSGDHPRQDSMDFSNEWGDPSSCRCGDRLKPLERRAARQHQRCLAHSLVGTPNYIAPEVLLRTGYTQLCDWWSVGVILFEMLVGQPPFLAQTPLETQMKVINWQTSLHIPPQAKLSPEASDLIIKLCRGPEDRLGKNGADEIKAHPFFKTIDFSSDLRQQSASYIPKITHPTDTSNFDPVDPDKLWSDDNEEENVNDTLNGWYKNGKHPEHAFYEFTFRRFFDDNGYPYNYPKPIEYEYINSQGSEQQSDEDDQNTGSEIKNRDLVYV
Description: RBC HotSpot kinase assay (33P-ATP, P81 filter-binding), LATS1. To be noted: Table 28, biochemical kinase assay; read-out: LATS1 IC50. Summed up:
(§1)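 Radiometric 33P-ATP kinase reaction in 20 mM Hepes pH 7.5, 10 mM MgCl2, 1 mM EGTA, 0.01% Brij35, 0.02 mg/ml BSA, 0.1 mM Na3VO4, 2 mM DTT, 1% DMSO. Compound preincubated with kinase and substrate 20 min, then 2 h at room temperature; P81 filter-binding read-out. IC50 (nM) from 10-point singlet curves.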

The target in another experiment is T2, LATS2 (Homo sapiens, UniProt Q9NRM7).
T2 sequence (Q9NRM7 1-1088): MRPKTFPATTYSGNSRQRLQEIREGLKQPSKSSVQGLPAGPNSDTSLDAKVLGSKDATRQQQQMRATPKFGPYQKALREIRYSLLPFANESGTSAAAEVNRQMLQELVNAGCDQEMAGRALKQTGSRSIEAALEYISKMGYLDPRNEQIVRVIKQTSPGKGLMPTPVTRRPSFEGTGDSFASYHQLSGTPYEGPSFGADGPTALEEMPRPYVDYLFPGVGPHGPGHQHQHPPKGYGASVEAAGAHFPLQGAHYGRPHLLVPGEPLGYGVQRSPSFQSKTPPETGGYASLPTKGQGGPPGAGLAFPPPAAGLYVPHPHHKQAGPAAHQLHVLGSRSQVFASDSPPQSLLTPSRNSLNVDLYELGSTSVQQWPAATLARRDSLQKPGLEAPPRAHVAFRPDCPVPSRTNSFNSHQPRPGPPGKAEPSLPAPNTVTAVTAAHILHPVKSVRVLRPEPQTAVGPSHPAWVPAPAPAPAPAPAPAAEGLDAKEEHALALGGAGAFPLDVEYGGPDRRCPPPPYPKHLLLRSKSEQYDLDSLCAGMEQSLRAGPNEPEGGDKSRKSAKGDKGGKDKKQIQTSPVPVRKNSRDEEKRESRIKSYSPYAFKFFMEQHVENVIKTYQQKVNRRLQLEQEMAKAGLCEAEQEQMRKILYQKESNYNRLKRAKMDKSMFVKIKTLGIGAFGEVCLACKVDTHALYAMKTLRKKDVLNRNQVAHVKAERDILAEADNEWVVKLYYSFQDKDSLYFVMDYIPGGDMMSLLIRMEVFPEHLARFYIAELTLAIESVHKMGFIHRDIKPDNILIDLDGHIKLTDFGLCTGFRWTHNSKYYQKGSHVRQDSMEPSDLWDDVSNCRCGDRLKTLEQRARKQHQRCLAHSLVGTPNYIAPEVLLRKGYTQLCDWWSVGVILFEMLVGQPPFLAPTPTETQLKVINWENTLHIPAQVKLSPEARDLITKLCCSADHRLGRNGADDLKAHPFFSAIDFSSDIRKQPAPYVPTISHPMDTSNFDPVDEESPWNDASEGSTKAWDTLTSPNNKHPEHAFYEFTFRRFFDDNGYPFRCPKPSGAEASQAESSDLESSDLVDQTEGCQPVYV
Description: RBC HotSpot kinase assay (33P-ATP, P81 filter-binding), LATS2. To be noted: Table 28, biochemical kinase assay; read-out: LATS2 IC50. Summed up:
as §1

For the next experiment, the target named is AKT (Homo sapiens, UniProt P31749). Description: RBC HotSpot kinase assay (33P-ATP, P81 filter-binding), AKT. To be noted: Table 28, biochemical kinase assay; read-out: AKT IC50. In a few lines: as §1

Structures are written as SMILES. A value given as a limit tells only on which side of the number the result lay.

Sequence of AKT (P31749 whole entry): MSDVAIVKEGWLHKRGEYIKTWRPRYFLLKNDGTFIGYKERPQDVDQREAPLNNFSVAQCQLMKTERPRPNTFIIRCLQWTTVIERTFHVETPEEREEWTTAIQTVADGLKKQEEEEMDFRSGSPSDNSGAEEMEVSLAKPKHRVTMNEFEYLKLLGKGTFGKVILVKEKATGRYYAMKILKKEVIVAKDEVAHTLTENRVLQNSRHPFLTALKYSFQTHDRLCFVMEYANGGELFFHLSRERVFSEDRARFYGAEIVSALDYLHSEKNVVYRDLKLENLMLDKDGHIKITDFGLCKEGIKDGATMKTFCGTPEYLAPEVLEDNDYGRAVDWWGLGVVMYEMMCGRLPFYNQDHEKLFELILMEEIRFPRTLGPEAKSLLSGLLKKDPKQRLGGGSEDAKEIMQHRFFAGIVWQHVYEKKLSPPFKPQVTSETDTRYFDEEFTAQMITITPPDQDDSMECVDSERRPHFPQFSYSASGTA

In general, IC50 refers to the concentration needed to halve the response being measured. As for `CC1CNCCC1(O)c1ccc(-c2ccnc3[nH]cc(F)c23)cc1Cl` (stereo not drawn) [Compound 99, 4-(2-chloro-4-(3-fluoro-1H-pyrrolo[2,3-b]pyridin-4-yl)phenyl)-3-methylpiperidin-4-ol], the IC50 at LATS1 was determined as 10.6 nM; at LATS2 it was 6.2 nM; on AKT, 219 nM.

Take `CC1CC(O)(c2ccc(-c3ccnc4[nH]cc(F)c34)cc2Cl)CC(C)N1` (stereo not drawn) [Compound 100, 4-(2-chloro-4-(3-fluoro-1H-pyrrolo[2,3-b]pyridin-4-yl)phenyl)-2,6-dimethylpiperidin-4-ol]: the values for the half-maximal inhibitory concentration (IC50) on LATS1, on LATS2 and on AKT were 230 nM, 195 nM and 1900 nM, respectively.

In the case of `COC(=O)c1c[nH]c2nccc(-c3ccc(C4(O)CCNCC4)c(Cl)c3)c12` [Compound 101, methyl 4-(3-chloro-4-(4-hydroxypiperidin-4-yl)phenyl)-1H-pyrrolo[2,3-b]pyridine-3-carboxylate], the IC50 came to 7.1 nM at LATS1, 70.8 nM at LATS2 and 1950 nM on AKT.

Regarding `OC1(c2ccc(-c3ccnc4[nH]cc(F)c34)cc2Cl)C2CNCC1C2` (stereo not drawn) [Compound 102, 6-(2-chloro-4-(3-fluoro-1H-pyrrolo[2,3-b]pyridin-4-yl)phenyl)-3-azabicyclo[3.1.1]heptan-6-ol], the results for the half-inhibitory concentration (IC50) on LATS1, on LATS2 and on AKT were 82 nM, 224 nM and 4870 nM, respectively.

`O[C@]1(c2ccc(-c3ccnc4[nH]cc(F)c34)cc2Cl)[C@@H]2CC[C@H]1CNC2` [Compound 103, (1R,5S,8s)-8-(2-chloro-4-(3-fluoro-1H-pyrrolo[2,3-b]pyridin-4-yl)phenyl)-3-azabicyclo[3.2.1]octan-8-ol]: the results for the IC50 on LATS1, at LATS2 and at AKT were 43.9 nM, 162 nM and 1720 nM, respectively.

As to `Cc1nc(-c2ccnc3[nH]cc(F)c23)ccc1C1(O)CCNCC1` [Compound 104, 4-(6-(3-fluoro-1H-pyrrolo[2,3-b]pyridin-4-yl)-2-methylpyridin-3-yl)piperidin-4-ol], the half-maximal inhibitory concentration (IC50) at LATS1 was 145 nM; on LATS2 it was 326 nM; on AKT, 6580 nM.

Turning to `OC1(c2ccc(-c3ccnc4[nH]cc(F)c34)cc2Cl)CNC1` [Compound 105, 3-(2-chloro-4-(3-fluoro-1H-pyrrolo[2,3-b]pyridin-4-yl)phenyl)azetidin-3-ol], the half-maximal inhibitory concentration (IC50) on LATS1 came to 16 nM; at LATS2 it was 14 nM; at AKT, 828 nM.

Regarding `COC(=O)c1c[nH]c2nccc(-c3ccc(C4(O)CNC4)c(Cl)c3)c12` [Compound 106, methyl 4-(3-chloro-4-(3-hydroxyazetidin-3-yl)phenyl)-1H-pyrrolo[2,3-b]pyridine-3-carboxylate], the figures for the IC50 on LATS1, on LATS2 and on AKT were 18.2 nM, 110 nM and 885 nM, respectively.

For `Cc1nc(-c2ccnc3[nH]cc(F)c23)ccc1C1(O)CC2(CNC2)C1` [Compound 107, 6-(6-(3-fluoro-1H-pyrrolo[2,3-b]pyridin-4-yl)-2-methylpyridin-3-yl)-2-azaspiro[3.3]heptan-6-ol], the IC50 was 473 nM on LATS1, 661 nM at LATS2 and > 10000 nM at AKT.

With `Cc1cc(-c2ccnc3[nH]cc(F)c23)cc(F)c1C1(O)CC2(CNC2)C1` [Compound 108, 6-(2-fluoro-4-(3-fluoro-1H-pyrrolo[2,3-b]pyridin-4-yl)-6-methylphenyl)-2-azaspiro[3.3]heptan-6-ol], the values for the half-maximal inhibitory concentration (IC50) on LATS1, on LATS2 and at AKT were 17.4 nM, 24.8 nM and 1270 nM, respectively.

With `OC1(c2c(F)cc(-c3ccnc4[nH]cc(F)c34)cc2F)CC2(CNC2)C1` [Compound 109, 6-(2,6-difluoro-4-(3-fluoro-1H-pyrrolo[2,3-b]pyridin-4-yl)phenyl)-2-azaspiro[3.3]heptan-6-ol], the results for the IC50 on LATS1, at LATS2 and on AKT were 46 nM, 61 nM and 2980 nM, respectively.

In the case of `COC(=O)c1c[nH]c2nccc(-c3ccc(C4(O)CCNCC4)cc3)c12` [Compound 112, methyl 4-(4-(4-hydroxypiperidin-4-yl)phenyl)-1H-pyrrolo[2,3-b]pyridine-3-carboxylate], the figures for the half-maximal inhibitory concentration (IC50) at LATS1, at LATS2 and on AKT were 9.2 nM, 18 nM and 2330 nM, respectively.

Turning to `COC(=O)c1c[nH]c2nccc(-c3ccc(C4(O)C[C@H]5CC[C@@H](C4)N5)cc3)c12` (stereo partly drawn) [Compound 113, methyl 4-(4-((1R,5S)-3-hydroxy-8-azabicyclo[3.2.1]octan-3-yl)phenyl)-1H-pyrrolo[2,3-b]pyridine-3-carboxylate], the concentration for half-maximal inhibition (IC50) at LATS1 amounted to 12.4 nM; on LATS2 it was 65.5 nM; at AKT, 1060 nM.

Regarding `OC1(c2ccc(-c3ccnc4[nH]cc(F)c34)cc2)C[C@H]2CC[C@@H](C1)N2` (stereo partly drawn) [Compound 114, (1R,5S)-3-(4-(3-fluoro-1H-pyrrolo[2,3-b]pyridin-4-yl)phenyl)-8-azabicyclo[3.2.1]octan-3-ol], the values for the IC50 at LATS1, at LATS2 and on AKT were 23 nM, 19 nM and 390 nM, respectively.

With `OC1(c2ccc(-c3ccnc4[nH]ccc34)cc2)C[C@H]2CC[C@@H](C1)N2` (stereo partly drawn) [Compound 115, (1R,5S)-3-(4-(1H-pyrrolo[2,3-b]pyridin-4-yl)phenyl)-8-azabicyclo[3.2.1]octan-3-ol], the half-inhibitory concentration (IC50) amounted to 7.2 nM on LATS1, 10 nM on LATS2 and 176 nM on AKT.

As to `OC1(c2ccc(-c3ccnc4[nH]cc(F)c34)cc2)CNC1` [Compound 116, 3-(4-(3-fluoro-1H-pyrrolo[2,3-b]pyridin-4-yl)phenyl)azetidin-3-ol], the IC50 at LATS1 turned out to be 9.2 nM; on LATS2, 16.7 nM; at AKT it was 468 nM.

In the case of `OC1(c2ccc(-c3ccnc4[nH]cc(Br)c34)cc2)CCNCC1` [Compound 117, 4-(4-(3-bromo-1H-pyrrolo[2,3-b]pyridin-4-yl)phenyl)piperidin-4-ol], the 50% inhibitory concentration (IC50) on LATS1 was 4.2 nM; on LATS2 it was 3.2 nM; at AKT it was 240 nM.

For the compound `OC1(c2ccc(-c3ccnc4[nH]cc(Br)c34)cc2)C[C@H]2CC[C@@H](C1)N2` (stereo partly drawn) [Compound 118, (1R,5S)-3-(4-(3-bromo-1H-pyrrolo[2,3-b]pyridin-4-yl)phenyl)-8-azabicyclo[3.2.1]octan-3-ol], the 50% inhibitory concentration (IC50) at LATS1 is 1.8 nM; at LATS2, 0.9 nM; on AKT, 14 nM.
